Results: patent US11071731B2, “Allosteric modulators of the mu opioid receptor” (Chiromics, LLC, priority 2017, dated 2021)

How the values were obtained:
[1] = biological target: T1, mu opioid receptor (MOR) (Homo sapiens, UniProt P35372); assay: Hit Hunter cAMP signaling assay (adenylyl cyclase inhibition), PAM mode with EC20 endomorphin-1; type: cell-based; conditions: for cAMP Max. Resp.: maximal response for adenylyl cyclase inhibition
[2] = biological target: T1, mu opioid receptor (MOR); assay: PathHunter β-arrestin recruitment assay, PAM mode with EC20 endomorphin-1; type: cell-based; conditions: for β-arr Max. Resp.: maximal response for β-arrestin recruitment; for EC50: β-arrestin recruitment, read-out: β-arr. EC50
Outline: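 β-Arrestin recruitment to the receptor was tracked by chemiluminescent β-galactosidase activity from complementing fragments (ED on receptor, EA on β-arrestin). Per-compound outputs were EC50 and percent maximal response.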

[3] = cAMP EC50, adenylyl cyclase inhibition
[4] = adenylyl cyclase inhibition, read-out: cAMP EC50

T1 sequence (P35372 whole entry): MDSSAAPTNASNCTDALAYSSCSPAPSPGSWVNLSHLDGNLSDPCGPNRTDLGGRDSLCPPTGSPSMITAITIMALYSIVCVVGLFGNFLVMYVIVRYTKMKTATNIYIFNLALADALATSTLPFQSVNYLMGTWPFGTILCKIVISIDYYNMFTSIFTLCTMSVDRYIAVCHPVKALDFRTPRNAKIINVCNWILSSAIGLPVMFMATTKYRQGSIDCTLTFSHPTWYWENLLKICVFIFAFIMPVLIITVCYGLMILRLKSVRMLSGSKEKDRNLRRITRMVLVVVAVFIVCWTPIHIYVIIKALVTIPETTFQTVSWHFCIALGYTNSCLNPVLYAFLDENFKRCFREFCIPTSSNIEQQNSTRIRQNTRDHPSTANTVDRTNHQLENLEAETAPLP

| SMILES | EC50 [1, 3] | cAMP Max. Resp. [1] | β-arr Max. Resp. [2] | EC50 [2] | EC50 [1, 4] |
| --- | --- | --- | --- | --- | --- |
| Fc1cnc(Cl)nc1N1CCCCC1c1cccnc1 (centres unmarked) [compound 373] | < 700 nM | D (D represents a maximal response of < 40%) | D (D represents a maximal response of < 40%) | < 700 nM | – |
| Fc1cnc(Cl)nc1N1CCCCC1c1ccn2nncc2c1 (centres unmarked) [compound 374] | < 700 nM | D (D represents a maximal response of < 40%) | D (D represents a maximal response of < 40%) | < 700 nM | – |
| Fc1cnccc1C1CCCCN1c1nc(Cl)ncc1F (centres unmarked) [compound 375] | < 700 nM | D (D represents a maximal response of < 40%) | D (D represents a maximal response of < 40%) | < 700 nM | – |
| Fc1cnc(Cl)nc1N1CCCCC1c1cncc(C(F)(F)F)c1 (centres unmarked) [compound 376] | < 700 nM | D (D represents a maximal response of < 40%) | D (D represents a maximal response of < 40%) | < 700 nM | – |
| Cc1nccc(C2CCCCN2c2nc(Cl)ncc2F)n1 (centres unmarked) [compound 377] | < 700 nM | D (D represents a maximal response of < 40%) | D (D represents a maximal response of < 40%) | < 700 nM | – |
| Fc1cnc(Cl)nc1N1CCCCC1c1cncnc1 (centres unmarked) [compound 378] | < 700 nM | D (D represents a maximal response of < 40%) | D (D represents a maximal response of < 40%) | < 700 nM | – |
| COc1cnc(C2CCCCN2c2nc(Cl)ncc2F)nc1Cl (centres unmarked) [compound 379] | < 700 nM | D (D represents a maximal response of < 40%) | D (D represents a maximal response of < 40%) | < 700 nM | – |
| COc1ncccc1C1CCCCN1c1nc(Cl)ncc1F (centres unmarked) [compound 380] | < 700 nM | D (D represents a maximal response of < 40%) | D (D represents a maximal response of < 40%) | < 700 nM | – |
| Cc1nccc(C2CCCCN2c2nc(Cl)ccc2F)n1 (centres unmarked) [compound 381] | – | D (D represents a maximal response of < 40%) | D (D represents a maximal response of < 40%) | < 700 nM | < 700 nM |
| Fc1ccc(Cl)nc1N1CCCCC1c1cncnc1 (centres unmarked) [compound 382] | < 700 nM | D (D represents a maximal response of < 40%) | D (D represents a maximal response of < 40%) | < 700 nM | – |
| Fc1ccc(Cl)nc1C1CCCCN1c1nc(Cl)ncc1F (centres unmarked) [compound 388] | < 700 nM | D (D represents a maximal response of < 40%) | D (D represents a maximal response of < 40%) | < 700 nM | – |
| Fc1cnc(Cl)nc1N1CCCCC1c1cccc2ncnn12 (centres unmarked) [compound 389] | < 700 nM | D (D represents a maximal response of < 40%) | D (D represents a maximal response of < 40%) | < 700 nM | – |
| Fc1cnc(Cl)nc1N1CCCCC1c1cc(Cl)cnc1F (centres unmarked) [compound 390] | < 700 nM | D (D represents a maximal response of < 40%) | D (D represents a maximal response of < 40%) | < 700 nM | – |
| Fc1cnc(Cl)nc1N1CCCCC1c1ccncn1 (centres unmarked) [compound 391] | < 700 nM | D (D represents a maximal response of < 40%) | D (D represents a maximal response of < 40%) | < 700 nM | – |
| Cc1ncc(Cl)c(C2CCCCN2c2nc(Cl)ncc2F)n1 (centres unmarked) [compound 392] | < 700 nM | D (D represents a maximal response of < 40%) | D (D represents a maximal response of < 40%) | < 700 nM | – |
| Oc1cnc2ccc(C3CCCCN3c3nc(Cl)ncc3F)cc2c1 (centres unmarked) [compound 393] | < 700 nM | D (D represents a maximal response of < 40%) | D (D represents a maximal response of < 40%) | < 700 nM | – |
| Fc1ccc(Cl)nc1N1CCCCC1c1cncc(Cl)n1 (centres unmarked) [compound 395] | – | D (D represents a maximal response of < 40%) | D (D represents a maximal response of < 40%) | < 700 nM | < 700 nM |
| Cc1nccc(N2CCCCC2c2cncc(Cl)n2)n1 (centres unmarked) [compound 396] | < 700 nM | D (D represents a maximal response of < 40%) | D (D represents a maximal response of < 40%) | < 700 nM | – |
| Fc1ccc(Cl)cc1C1CCCCN1c1nc(Cl)ncc1F (centres unmarked) [compound 400] | < 700 nM | D (D represents a maximal response of < 40%) | D (D represents a maximal response of < 40%) | < 700 nM | – |
| Oc1nccc(N2CCCCC2c2cccc(C(F)(F)F)c2)n1 (centres unmarked) [compound 401] | < 700 nM | D (D represents a maximal response of < 40%) | D (D represents a maximal response of < 40%) | < 700 nM | – |
| Fc1c(N2CCCCC2c2cccc(C(F)(F)F)c2)ccnc1Cl (centres unmarked) [compound 402] | < 700 nM | D (D represents a maximal response of < 40%) | D (D represents a maximal response of < 40%) | < 700 nM | – |
| Fc1ccc(C(F)(F)F)cc1C1CCCCN1c1ccnc(Cl)n1 (centres unmarked) [compound 403] | < 700 nM | D (D represents a maximal response of < 40%) | D (D represents a maximal response of < 40%) | < 700 nM | – |
| Fc1c(Cl)cccc1C1CCCCN1c1ccnc(Cl)n1 (centres unmarked) [compound 405] | < 700 nM | D (D represents a maximal response of < 40%) | D (D represents a maximal response of < 40%) | < 700 nM | – |
| Fc1ccc(Cl)cc1C1CCCCN1c1ccnc(Cl)n1 (centres unmarked) [compound 406] | < 700 nM | D (D represents a maximal response of < 40%) | D (D represents a maximal response of < 40%) | < 700 nM | – |
| Cc1ncccc1C1CCCCN1c1nc(Cl)ncc1F (centres unmarked) [compound 407] | < 700 nM | D (D represents a maximal response of < 40%) | D (D represents a maximal response of < 40%) | < 700 nM | – |
| Fc1cnc(Cl)nc1N1CCCCC1c1cc(Cl)ccn1 (centres unmarked) [compound 408] | < 700 nM | D (D represents a maximal response of < 40%) | D (D represents a maximal response of < 40%) | < 700 nM | – |
| Cc1nc(C2CCCCN2c2nc(Cl)ncc2F)no1 (centres unmarked) [compound 409] | < 700 nM | D (D represents a maximal response of < 40%) | D (D represents a maximal response of < 40%) | < 700 nM | – |
| Fc1cnc(Cl)nc1N1CCCCC1c1ccnc(C(F)(F)F)c1 (centres unmarked) [compound 410] | < 700 nM | D (D represents a maximal response of < 40%) | D (D represents a maximal response of < 40%) | < 700 nM | – |
| Cc1ccc(C2CCCCN2c2nc(Cl)ncc2F)cn1 (centres unmarked) [compound 411] | < 700 nM | D (D represents a maximal response of < 40%) | D (D represents a maximal response of < 40%) | < 700 nM | – |
